Values quoted from earlier work, collected in patent publication US4603221A, “Process for preparing substituted tetralones” (Ethyl Corporation, priority 1985, dated 1986).

Conditions: method generally in accordance with Gero et al., J. Org. Chem. 16, 1835-1838 (1951)

| pKa Value | SMILES |
| --- | --- |
| 6.79 | Cc1ccnc(C)c1 [2,4-lutidine] |
| 6.62 | Cc1cccc(C)n1 [2,6-lutidine] |
